Measurements reported in patent EP0696280B1, “SUBSTITUTED PYRROLIDIN-3-YL-ALKYL-PIPERIDINES USEFUL AS TACHYKININ ANTAGONISTS” (MERRELL PHARMACEUTICALS INC., priority 1993, dated 1994).
Structures can show the parent of a compound that is named as a salt. Where two headings read alike, the source gives them in different places.

Key:
[1] = tested on: NKA-induced respiratory effects; test: Antagonism of NKA aerosol induced respiratory effects in conscious guinea pigs (whole body plethysmography); assay type: in vivo, guinea pig; conditions: 20 min prior to NKA aerosol (0.05%); for DYSPNEA ONSET: mean and SEM
Experimental: (§1) In vivo experiments were performed using male Duncan Hartley guinea pigs (250-350g). Changes in conscious breathing patterns were monitored in four animals simultaneously using modified whole body plethysmography consisting of four small plexiglass boxes each connected to a reference box via Validyne DP 45-16 differential pressure transducers. The 4 boxes were equipped with an air supply line (also used for aerosol delivery) and an exhaust air line. Supply and exhaust lines were of the same length and narrow bore and arose from a common supply chamber and vented to a common exhaust chamber. This system was used to ensure that fluctuations in supply air and atmospheric pressure would remain in phase and be eliminated from the net signal by the differential pressure transducers. The analog pressure signals were digitalized via a Data Translation DT2821 A to D board. Data were collected at a rate of 100 samples/second/animal. Each cycle of pressure change was analyzed using the following parameters: rising and falling slope determined between minimum and maximum pressures, the ratio of rising over falling slope, and the magnitude of the change between initial trough pressure and peak cycle pressure. Using these values (and observing the animals) the pressure cycles were characterized into normal breaths, forced exhalations (apparent by abdominal heaving), significant respiratory events (SREs; usually coughs, less often sneezes or gasps which were characterized by transient, extremely large pressure increases which were distinguishable from noise) and movement/noise with a PCAT 286 running a System V UNIX operating system. Dyspnea was defined as a significant, sustained increase in plethysmograph pressure which was associated with an observable shift to labored breathing in the animal.
(§2) During the course of a typical experiment in which airway responsiveness to various bronchoconstricting agents was examined, aerosols were delivered for 19 min (0.33 ml/min) using a DeVilbiss Ultraneb 99 ultrasonic nebulizer and animals monitored during this time. Prior to nebulization, 1 min of resting breathing was collected to establish a baseline pressure. […] The vehicle for nebulization of all bronchoconstrictive agents was phosphate buffered saline (pH 7.4) which elicited no respiratory effects itself. Putative tachykinin antagonists were administered either (i.v.) 20 min prior to onset of aerosol exposure or orally 1 hour prior to onset (to guinea pigs after an overnight fast).
Table 6 illustrates the effects of the compounds of Example 3; Example 20A; and Example 5A on respiratory effects induced by NKA aerosol. […] These effects were dose dependent i.e. the higher the dose of compound, the greater attenuation of NKA-mediated effects. […]
Compounds were administered 20 min prior to initiation of NKA aerosol (0.05%). Values for each treatment represent the mean and SEM of data from 5-37 animals per dose.

[2] = tested on: capsaicin-induced respiratory effects; test: Antagonism of capsaicin aerosol induced respiratory effects in conscious guinea pigs (whole body plethysmography); assay type: in vivo, guinea pig; conditions: for DYSPNEA ONSET / MAXIMUM PRESSURE INCREASE (mmH2O) / SRE NUMBER*: mean and SEM; for SRE NUMBER*: number of coughs/gasps during 19 min exposure
Experimental: as §1, §2
Capsaicin aerosol is known to promote release of the tachykinins SP and NKA from sensory nerves in the airways of guinea pigs which may then act upon NK1 and NK2 receptors, respectively to elicit respiratory effects. […]
(§3) Values are mean and SEM of data derived from number of animals indicated in parenthesis. Putative tachykinin antagonists were administered intravenously 20 min prior to initiation of capsaicin aerosol (0.001%). *SRE number indicates the number of coughs/gasps which occurred during the 19 min capsaicin exposure period.
as §3, with “by oral gavage 1 hr” for “intravenously 20 min”

[3] = target: T1, human jejunal NK2 receptor (Homo sapiens, UniProt P21452); test: Antagonism of iodinated tachykinin binding to NK2 receptor (125iodohistidyl-1-neurokinin A, HSKR-1 cell membranes)
T1 construct: expressed in transfected cells; host or cells: HSKR-1 cells (mouse 3T3 fibroblasts)
T1 sequence (P21452 1-398): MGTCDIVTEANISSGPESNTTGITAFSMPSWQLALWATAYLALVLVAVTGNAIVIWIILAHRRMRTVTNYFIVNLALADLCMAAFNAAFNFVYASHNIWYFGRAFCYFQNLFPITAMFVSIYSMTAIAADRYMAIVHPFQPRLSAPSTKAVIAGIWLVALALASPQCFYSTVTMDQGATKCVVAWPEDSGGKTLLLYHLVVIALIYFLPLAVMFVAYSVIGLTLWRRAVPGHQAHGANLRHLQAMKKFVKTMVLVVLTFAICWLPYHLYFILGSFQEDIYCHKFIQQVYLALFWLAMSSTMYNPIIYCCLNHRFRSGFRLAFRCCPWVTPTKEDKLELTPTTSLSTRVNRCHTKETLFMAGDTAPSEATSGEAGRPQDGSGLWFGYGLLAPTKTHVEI
Experimental: (§4) The NK1 receptor affinity of proposed tachykinin antagonists was devaluated in guinea pig lungs (Keystone Biologicals, Cleveland, OH), affinity for the NK2 receptor evaluated in HSKR-1 cells (which are mouse 3T3 fibroblasts expressing the human jejunal NK2 receptor) and NK-3 receptor affinity was evaluated in freshly collected guinea pig cerebral cortex. Tissues or cells were homogenized with a Polytron in 15 volumes of 50 mM Tris-HCl buffer (pH 7.4, 4°C) and centrifuged. The pellet was resuspended in Tris-HCl buffer and was centrifuged; the pellet was washed twice by resuspension. The final pellet was resuspended at a concentration of 40 mg/ml for tissues (guinea pig lung and cerebral cortex) and 20 mg/ml for cells in incubation buffer and remained at room temperature for at least 15 min prior to use. Receptor binding was initiated by addition of 250 µl membrane preparation in duplicate to 0.1 nM of the following radioligands: ^125I-Bolton Hunter Lys-3 labeled substance P; ^125iodohistidyl-1-neurokinin A; and ^125I-Bolton Hunter labeled Lys-4 eledoisin in a final volume of 500 µl of buffer containing 50 mM Tris-HCl (pH 7.4 at room temperature), 0.1% bovine serum albumin, 2 mM MnCl2, 40 µg/ml bacitracin, 4 µg/ml leupeptin and chymostatin, 1 µM thiorphan and various doses of the putative tachykinin antagonists. Incubations were performed at room temperature for 90 min (NK1 receptor assays) or 2 hr (NK2 and NK3 receptor assays); binding was terminated by addition of 50 mM Tris-HCl buffer (pH 7.4, 4°C) and filtration under vacuum through GF/B filters presoaked with 0.1% polyethyleneimine (NK1 receptor assays) or 0.5% bovine serum albumin (NK2 and NK3 receptor assays). Filter bound radioactivity was quantitated in a gamma counter. Nonspecific binding was defined as binding in the presence of 1 µM substance P, neurokinin A, or eledoisin. Specific binding was calculated by subtracting nonspecific binding from total binding. Competition of iodinated SP, NKA, or eledoisin binding by test compounds or standards was expressed as a percentage of this maximum competition. IC50 values (concentration required to inhibit 50% of receptor binding) were generated for each of the test compounds by nonlinear regression using an iterative curve fitting program (GraphPAD Inplot, San Diego, CA).

[4] = target: T2, NK-3 receptor (Cavia porcellus, UniProt P30098); test: Antagonism of iodinated tachykinin binding to NK-3 receptor (125I-Bolton Hunter labeled Lys-4 eledoisin, guinea pig cerebral cortex membranes)
T2 construct: freshly collected guinea pig cerebral cortex; from tissue; host or cells: guinea pig cerebral cortex membranes
T2 sequence (P30098 1-440): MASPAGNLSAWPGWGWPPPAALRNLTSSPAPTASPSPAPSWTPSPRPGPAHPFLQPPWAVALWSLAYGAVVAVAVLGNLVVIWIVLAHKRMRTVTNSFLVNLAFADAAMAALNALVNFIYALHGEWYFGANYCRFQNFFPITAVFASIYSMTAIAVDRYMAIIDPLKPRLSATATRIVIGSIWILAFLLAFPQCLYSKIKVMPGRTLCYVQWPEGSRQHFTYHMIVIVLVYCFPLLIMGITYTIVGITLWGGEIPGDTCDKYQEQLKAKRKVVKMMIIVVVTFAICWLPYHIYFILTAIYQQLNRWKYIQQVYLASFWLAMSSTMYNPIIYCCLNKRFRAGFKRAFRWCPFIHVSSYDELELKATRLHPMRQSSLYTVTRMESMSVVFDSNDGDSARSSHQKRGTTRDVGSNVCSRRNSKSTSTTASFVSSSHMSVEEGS
Experimental: as §4

[5] = target: T3, NK1 receptor (Cavia porcellus, UniProt P30547); test: Antagonism of iodinated tachykinin binding to NK1 receptor (125I-Bolton Hunter Lys-3 labeled substance P, guinea pig lung membranes)
T3 construct: Tissues or cells were homogenized with a Polytron in 15 volumes of 50 mM Tris-HCl buffer; tissue Keystone Biologicals, Cleveland, OH; host or cells: guinea pig lung membranes
T3 sequence (P30547 whole entry): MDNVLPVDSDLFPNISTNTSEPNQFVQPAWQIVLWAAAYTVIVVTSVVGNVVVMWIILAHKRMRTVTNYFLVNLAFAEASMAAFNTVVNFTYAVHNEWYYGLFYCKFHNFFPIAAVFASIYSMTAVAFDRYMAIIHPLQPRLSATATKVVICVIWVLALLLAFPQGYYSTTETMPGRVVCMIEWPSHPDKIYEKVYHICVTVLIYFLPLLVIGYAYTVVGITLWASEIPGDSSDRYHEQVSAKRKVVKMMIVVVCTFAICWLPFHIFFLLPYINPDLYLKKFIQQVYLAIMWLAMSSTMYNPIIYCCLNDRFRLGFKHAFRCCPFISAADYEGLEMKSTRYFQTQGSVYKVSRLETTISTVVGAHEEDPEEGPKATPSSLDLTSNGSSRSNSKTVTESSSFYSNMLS
Experimental: as §4

[6] = 1 mg/kg intravenously 20 min prior to capsaicin aerosol (0.001%)
[7] = 2.5 mg/kg intravenously 20 min prior to capsaicin aerosol (0.001%)
[8] = 5 mg/kg intravenously 20 min prior to capsaicin aerosol (0.001%)
[9] = 10 mg/kg intravenously 20 min prior to capsaicin aerosol (0.001%)
[10] = HSKR-1 cells (mouse 3T3 fibroblasts expressing human jejunal NK2 receptor), mean of several experiments, read-out: NK-2 IC50
[11] = guinea pig lungs, mean of several experiments, read-out: NK-1 IC50

COc1cc(C(=O)N2CCC(CCN3CCC(C(N)=O)(c4ccccc4)CC3)(c3ccc(Cl)c(Cl)c3)C2)cc(OC)c1OC.Cl (single isomer, unassigned; (+)) [Example 20A, (+)-1-[2-[3-(3,4-dichloro-phenyl)-1-(3,4,5-trimethoxy-benzoyl)-pyrrolidin-3-yl] -ethyl]-4-phenyl-piperidine-4-carboxylic acid amide hydrochloride]
DYSPNEA INCIDENCE ([1]; 1 mg/kg): 100% (10/10) | DYSPNEA ONSET ([1]; 1 mg/kg): 451 ± 30 s | DYSPNEA INCIDENCE ([1]; 5 mg/kg): 90% (9/10) | DYSPNEA ONSET ([1]; 5 mg/kg): 706 ± 82 s | DYSPNEA INCIDENCE ([1]; 10 mg/kg): 70% (7/10) | DYSPNEA ONSET ([1]; 10 mg/kg): 829 ± 105 s | DYSPNEA INCIDENCE [2, 6]: 77.8% (7/9) | DYSPNEA ONSET [2, 6]: 331 ± 22 s | MAXIMUM PRESSURE INCREASE (mmH2O) [2, 6]: 1.0 ± 0.1 mmH2O | SRE NUMBER* [2, 6]: 9.9 ± 2.7 | DYSPNEA INCIDENCE [2, 7]: 100% (10/10) | DYSPNEA ONSET [2, 7]: 426 ± 57 s | MAXIMUM PRESSURE INCREASE (mmH2O) [2, 7]: 0.6 ± 0.1 mmH2O | SRE NUMBER* [2, 7]: 8.3 ± 1.6 | DYSPNEA INCIDENCE [2, 8]: 44.4% (4/9) | DYSPNEA ONSET [2, 8]: 597 ± 186 s | MAXIMUM PRESSURE INCREASE (mmH2O) [2, 8]: 0.8 ± 0.06 mmH2O | SRE NUMBER* [2, 8]: 4.4 ± 1.9 | DYSPNEA INCIDENCE [2, 9]: 55.6% (5/9) | DYSPNEA ONSET [2, 9]: 592 ± 71 s | MAXIMUM PRESSURE INCREASE (mmH2O) [2, 9]: 0.8 ± 0.1 mmH2O | SRE NUMBER* [2, 9]: 3.3 ± 1.1

NC(=O)C1(c2ccccc2)CCN(CCC2(c3ccc(Cl)c(Cl)c3)CCN(C(=O)c3ccccc3)C2)CC1 (centres unmarked) [Example 1, 1-[2-[3-(3,4-dichloro-phenyl)-1-benzoyl-pyrrolidin-3-yl]-ethyl]-4-phenyl-piperidine-4-carboxylic acid amide]
IC50 [3, 10]: 7 nM | IC50 [4]: 162 nM

COc1cc(C(=O)N2CCC(CCN3CCC(C(N)=O)(c4ccccc4)CC3)(c3ccccc3)C2)cc(OC)c1OC (centres unmarked) [Example 22A, 1-[2-[3-phenyl-1-(3,4,5-trimethoxy-benzoyl)-pyrrolidin-3-yl]-ethyl]-4-phenyl-piperidine-4-carboxylic acid amide hydrochloride]
IC50 [5]: 17.4 nM | IC50 [3]: 1190 nM

NC(=O)C1(c2ccccc2)CCN(CCC2(c3ccc4ccccc4c3)CCN(C(=O)c3ccccc3)C2)CC1 (racemic) [Example 8, 1-[2-(1-benzoyl-3-napthalen-2-yl-pyrrolidin-3-yl)-ethyl]-4-phenyl-piperidine-4-carboxylic acid amide]
IC50 [5, 11]: 1480 nM | IC50 [3, 10]: 94 nM

COc1ccc(C2(CCN3CCC(C(N)=O)(c4ccccc4)CC3)CCN(C(=O)c3cc(OC)c(OC)c(OC)c3)C2)cc1OC (centres unmarked) [Example 23, 1-[2-[3-(3,4-dimethoxy-phenyl)-1-(3,4,5-trimethoxy-benzoyl)-pyrrolidin-3-yl]-ethyl]-4-phenyl-piperidine-4-carboxylic acid amide]
IC50 [5]: 20 nM | IC50 [3, 10]: 2680 nM

COC(=O)CC[C@H](NC(=O)C1(c2ccccc2)CCN(CCC2(c3ccc(Cl)c(Cl)c3)CCN(C(=O)c3ccccc3)C2)CC1)C(=O)OC (some centres unmarked) [Example 6]
IC50 [5, 11]: 182 nM | IC50 [3]: 15 nM

NC(=O)C1(c2ccccc2)CCN(CCC2(c3ccc4ccccc4c3)CC(=O)N(Cc3ccccc3)C2)CC1 (racemic) [Example 12]
IC50 [5, 11]: 810 nM | IC50 [3, 10]: 179 nM

COc1ccccc1C(=O)N1CCC(CCN2CCC(C(N)=O)(c3ccccc3)CC2)(c2ccc(Cl)c(Cl)c2)C1 (centres unmarked) [Example 13, 1-[2-[3-(3,4-dichloro-phenyl)-1-(2-methoxy-benzoyl)-pyrrolidin-3-yl]-ethyl]-4-phenyl-piperidine-4-carboxylic acid amide]
IC50 [3, 10]: 14 nM
